# Results reported in patent publication US6784201B2, “Benzothiepines having activity as inhibitors of ileal bile acid transport and taurocholate uptake” (G.D. Searle & Company, priority 1994, dated 2004).
# Read-outs that look alike come from different tables or passages of the source.
# Target: T1, human IBAT (Homo sapiens, UniProt Q12908)
# T1 construct: expressed in transfected cells; host or cells: Baby hamster kidney (BHK) cells, clone H14
# T1 sequence (Q12908 1-348): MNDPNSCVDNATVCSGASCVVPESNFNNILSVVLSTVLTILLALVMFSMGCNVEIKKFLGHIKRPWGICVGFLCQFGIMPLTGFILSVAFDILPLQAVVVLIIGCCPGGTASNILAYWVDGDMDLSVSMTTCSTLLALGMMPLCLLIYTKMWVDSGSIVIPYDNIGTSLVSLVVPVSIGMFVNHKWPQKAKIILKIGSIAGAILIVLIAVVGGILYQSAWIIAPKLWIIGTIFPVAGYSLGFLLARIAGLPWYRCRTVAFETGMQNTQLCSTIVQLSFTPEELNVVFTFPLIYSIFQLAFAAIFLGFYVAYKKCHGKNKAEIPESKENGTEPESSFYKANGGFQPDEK
# Experiment: In vitro assay of IBAT-mediated uptake of [14C]-taurocholate (TC) in H14 cells
# Type: cell-based
# Conditions: for inhibition at 100 µM: read-out: In vitro % Inhibition of TC Uptake @ 100 uM
# Method: In Vitro Assay of Compounds that Inhibit IBAT-Mediated Uptake of [^14C]-Taurocholate (TC) in H14 Cells
# Baby hamster kidney cells (BHK) transfected with the cDNA of human IBAT (H14 cells) are seeded at 60,000 cells/well in 96 well Top-Count tissue culture plates for assays run within in 24 hours of seeding, 30,000 cells/well for assays run within 48 hours, and 10,000 cells/well for assays run within 72 hours.
# On the day of assay, the cell monolayer is gently washed once with 100 μl assay buffer (Dulbecco's Modified Eagle's medium with 4.5 g/L glucose+0.2% (w/v) fatty acid free bovine serum albumin-(FAF)BSA). To each well 50 μl of a two-fold concentrate of test compound in assay buffer is added along with 50 μl of 6 μM [^14C]-taurocholate in assay buffer (final concentration of 3 μM [^14C]-taurocholate). The cell culture plates are incubated 2 hours at 37° C. prior to gently washing each well twice with 100 μl 4° C. Dulbecco's phosphate-buffered saline (PBS) containing 0.2% (w/v) (FAF)BSA. The wells are then gently washed once with 100 μl 4° C. PBS without (FAF)BSA. To each 200 μl of liquid scintillation counting fluid is added, the plates are heat sealed and shaken for 30 minutes at room temperature prior to measuring the amount of radioactivity in each well on a Packard Top-Count instrument.
# [1] = H14 cells, Table 5, read-out: IC50 uM (In vitro Taurocholate Cell Uptake)
SMILES,IC50 (read-out: Human TC IC50),further results
"CCCCC1(CC)C=Cc2ccccc2SC1 (stereo not shown) [Example 18, 3-Butyl-3-ethyl-2,3-dihydrobenzothiepine]",,inhibition at 100 µM: 6%
CCCCC1(CCCC)CS(=O)(=O)c2ccc(OC)cc2C(c2cc[n+]([O-])cc2)C1O (stereo not shown) [Example 1198],2.5 µM,
CCCCC1(CC)CS(=O)(=O)c2ccc(OC)cc2C(c2ccc(F)cc2)C1O (stereo not shown) [Example 268],0.029 µM,
"CCCCC1(CC)CS(=O)(=O)c2ccccc2C(Sc2ccccc2)C1O (stereo not shown) [Example 21a, 3-Butyl-3-ethyl-4-hydroxy-5-phenylthio-2,3,4,5-tetrahydro-benzothiepine-1,1-dioxide]",,inhibition at 100 µM: 37%
CCCCC1(CCCC)CS(=O)(=O)c2ccc(NC(C)(C)C)cc2C(c2cccc(OC)c2)C1O (stereo not shown) [Example 1304],0.25 µM,
"CCCCC1(CC)CS(=O)(=O)c2ccc(N)cc2C(c2ccccc2)C1O (single isomer, unassigned) [Example 121]",0.068 µM,
CCCCCCOc1ccc2c(c1)S(=O)(=O)CC(CC)(CCCC)C(O)C2c1ccccc1 (stereo not shown) [Example 1312],5 µM,
"CCCC[C@]1(CC)CS(=O)(=O)c2ccccc2[C@@H](c2ccccc2)[C@@H]1O [Example 6a, (3α,4α,5β) 3-Butyl-3-ethyl-4-hydroxy-5-phenyl-2,3,4,5-tetrahydrobenzothiepine-1,1-dioxide]",,IC50 [1]: 5 µM
CCCCC1(CCCC)CS(=O)(=O)c2c(OC)cccc2C(c2cccc(OC)c2)C1O (stereo not shown) [Example 1154],0.037 µM,
CCCCC1(CCCC)CS(=O)(=O)c2ccc(N(C)C)cc2C(c2ccc(OCCOCCOCC[N+]3(C)CCN(C)CC3)c(F)c2)C1O (stereo not shown) [Example 1033],0.002 µM,
CCCCC1(CC)CS(=O)(=O)c2ccc(OC)cc2C(c2cccc(F)c2)C1O (stereo not shown) [Example 277],0.04 µM,
CCCCC1(CC)CS(=O)(=O)c2ccc(O)cc2C(c2ccc(F)cc2)C1O (stereo not shown) [Example 270],0.12 µM,
CCCCC1(CCCC)CS(=O)(=O)c2ccc(N(C)C)cc2C(c2cccc(OCCOCCOCC[N+]34CCN(CC3)CC4)c2)C1O (stereo not shown) [Example 1095],0.006 µM,
CCCCC1(CCCC)CS(=O)(=O)c2c(cccc2N(C)C)C(c2ccc(F)cc2)C1O (stereo not shown) [Example 1129],0.018 µM,
"CCCCC1(CC)CS(=O)(=O)c2ccc(N(C)C)cc2C(c2ccc(OC)c(F)c2)C1O (single isomer, unassigned) [Example 1213]",1.7 µM,
CCCCC1(CC)CS(=O)(=O)c2ccc(N(C)C=O)cc2C(c2ccccc2)C1=O (stereo not shown) [Example 1197],2.2 µM,
CCCCC1(CC)CS(=O)(=O)c2ccc(N)cc2C(c2ccccc2)C1O (stereo not shown) [Example 1310],1.16 µM,
CCCCC1(CCCC)CS(=O)(=O)c2ccc(NC)cc2C(c2cccc(OC)c2)C1O (stereo not shown) [Example 1114],0.009 µM,
CCCCC1(CCCC)CS(=O)(=O)c2c(O)cccc2C(c2cccc(O)c2)C1O (stereo not shown) [Example 1302],1.4 µM,
CCCCC1(CC)CS(=O)(=O)c2ccc([N+](C)(C)C)cc2C(c2ccc(OC)c(F)c2)C1O (stereo not shown) [Example 1282],0.17 µM,
CCCCC1(CC)CS(=O)(=O)c2ccc(OCCCCCCOc3ccc4c(c3)C(c3ccccc3)C(O)C(CC)(CCCC)CS4(=O)=O)cc2C(c2ccccc2)C1O (stereo not shown) [Example 139],,IC50 (Human TC IC50): > 25 µM
CCCCC1(CCCC)CS(=O)(=O)c2ccc(N(C)C)cc2C(c2cccc(OCCOCCOCC[n+]3nnn4c3CCCCC4)c2)C1O (stereo not shown) [Example 1360],0.003 µM,
CCCCC1(CC)CS(=O)(=O)c2ccc(N(C)C)cc2C(c2ccccc2)C1O (stereo not shown) [Example 1159],,IC50 (Human TC IC50): 0.06 µM
CCCCC1(CCCC)CS(=O)(=O)c2ccc(NCC)cc2C(c2cccc(OC)c2)C1O (stereo not shown) [Example 1222],0.065 µM,
CCCCC1(CC)CS(=O)(=O)c2ccc(OC)cc2C(c2ccc(F)cc2)C1O (stereo not shown) [Example 269],0.08 µM,
"CCCC[C@]1(CC)CSc2ccccc2[C@H](c2ccccc2)[C@@H]1O [Example 61, (3α,4α,5α) 3-Butyl-3-ethyl-4-hydroxy-5-phenyl-2,3,4,5-tetrahydrobenzothiepine]",,IC50 [1]: 30 µM

# Second part, led by results:
IC50 (read-out: Human TC IC50),SMILES,further results
0.011 µM,CCCCC1(CCCC)CS(=O)(=O)c2ccc(N(C)C)cc2C(c2cccc([N+](=O)[O-])c2)C1O (stereo not shown) [Example 1256],
0.003 µM,CCCCC1(CCCC)CS(=O)(=O)c2ccc(N(C)C)cc2C(c2cccc(OCCOCCOCC[N+](CC)(CC)CCN(C)C(=O)c3ccccc3)c2)C1O (stereo not shown) [Example 1058],
0.12 µM,CCCCC1(CCCC)CS(=O)(=O)c2ccc([N+](C)(C)C)cc2C(c2ccc(O)cc2)C1O (stereo not shown) [Example 1168],
0.0036 µM,CCCCC1(CCCC)CS(=O)(=O)c2ccc(N(C)C)cc2C(c2ccc(OC)c(F)c2)C1O (stereo not shown) [Example 1347],
0.002 µM,CCCCC1(CCCC)CS(=O)(=O)c2ccc(N(C)C)cc2C(c2ccc(OCCCCOCCCC[N+](CC)(CC)CC)c(F)c2)C1O (stereo not shown) [Example 1031],
0.029 µM,CCCCC1(CCCC)CS(=O)(=O)c2ccc(N(C)C)cc2C(c2cccc(OCCOCCOCC[N+](CCCCCCC(C)C)(CCCCCCC(C)C)CCCCCCC(C)C)c2)C1O (stereo not shown) [Example 1276],
0.0098 µM,CCCCC1(CCCC)CS(=O)(=O)c2ccc(N(C)C)cc2C(c2ccc(F)cc2)C1O (stereo not shown) [Example 1115],
0.003 µM,CCCCC1(CCCC)CS(=O)(=O)c2ccc(N(C)C)cc2C(c2ccc(OCCCCOCCCC[N+](CC)(CC)CC)c(F)c2)C1O (stereo not shown) [Example 1040],
0.002 µM,CCCCC1(CCCC)CS(=O)(=O)c2ccc(N(C)C)cc2C(c2ccc(OCCCCOCCCC[n+]3ccccc3)c(F)c2)C1O (stereo not shown) [Example 1019],
0.07 µM,CCCCC1(CCCC)CS(=O)(=O)c2ccc(N(C)C)cc2C(c2ccc(OCC[N+](C)(C)CCOCCOCC[N+](C)(C)C)cc2)C1O (stereo not shown) [Example 1237],
0.006 µM,CCCCC1(CCCC)CS(=O)(=O)c2ccc(N(C)C)cc2C(c2cccc(OCCOCCOCC[N+](C)(C)c3ccccc3)c2)C1O (stereo not shown) [Example 1092],
0.003 µM,CCCCC1(CCCC)CS(=O)(=O)c2ccc(N(C)C)cc2C(c2cccc(OCCOCCOCC[n+]3ccc4ccccc4c3)c2)C1O (stereo not shown) [Example 1054],
0.1 µM,CCCCC1(CCCC)CS(=O)(=O)c2ccc(N(C)C)cc2C(c2ccc(OCCC[N+](CCCC)(CCCC)CCCC)cc2)C1O (stereo not shown) [Example 1352],
0.011 µM,CCCCC1(CCCC)CS(=O)(=O)c2ccc(N(C)C)cc2C(c2ccc(OCCOCC[N+](CC)(CC)CCN(CC)CC)c(F)c2)C1O (stereo not shown) [Example 1122],
0.014 µM,CCCCC1(CCCC)CS(=O)(=O)c2ccc(N(C)C)cc2C(c2ccc(OCc3cc[n+](CC(=O)OC(C)(C)C)cc3)c(F)c2)C1O (stereo not shown) [Example 1295],
0.19 µM,CCCCC1(CCCC)CS(=O)(=O)c2ccc(N(C)C)cc2C(c2cccc(OS(=O)(=O)C(F)(F)F)c2)C1O (stereo not shown) [Example 1178],
0.006 µM,CCCCC1(CCCC)CS(=O)(=O)c2ccc(N(C)C)cc2C(c2cccc(OCCOCCOCC[n+]3cccc4ccccc43)c2)C1O (stereo not shown) [Example 1090],
0.062 µM,CCCCC1(CCCC)CS(=O)(=O)c2ccc(N(CC)CC)cc2C(c2ccc(F)cc2)C1O (stereo not shown) [Example 1160],
0.15 µM,CCCCC1(CCCC)CS(=O)(=O)c2ccc([N+](C)(C)C)cc2C(c2cccc(OC)c2)C1O (stereo not shown) [Example 1301],
1.2 µM,CCCCC1(CCCC)CS(=O)(=O)c2ccc(N(C)C)cc2C(c2ccc(OC(=O)C(OC)(c3ccccc3)C(F)(F)F)cc2)C1O (stereo not shown) [Example 1306],
0.004 µM,CCCCC1(CCCC)CS(=O)(=O)c2ccc(NC)cc2C(c2cccc(OCCOCCOCC[N+](C)(C)CCN(C)S(=O)(=O)c3ccccc3)c2)C1O (stereo not shown) [Example 1062],
0.015 µM,CCCCC1(CCCC)CS(=O)(=O)c2ccc(N(C)C)cc2C(c2ccc(OCCCC[n+]3ccc(C(=O)OC)cc3)c(F)c2)C1O (stereo not shown) [Example 1366],
0.003 µM,CCCCC1(CCCC)CS(=O)(=O)c2ccc(N(C)C)cc2C(c2cccc(OCCOCCOCC[n+]3ccncc3)c2)C1O (stereo not shown) [Example 1057],
0.071 µM,"CCCCC1(CC)CS(=O)(=O)c2ccc(N(C)C)cc2C(c2ccc(O)cc2)C1O (single isomer, unassigned) [Example 1287]",
0.008 µM,CCCCC1(CCCC)CS(=O)(=O)c2ccc(N(C)C)cc2C(c2cccc(OCCOCCOCC[N+](CC)(CC)CCNS(=O)(=O)c3ccccc3)c2)C1O (stereo not shown) [Example 1365],
6.1 µM,"CCCCC1(CCCC)CS(=O)(=O)c2ccc(N(C)C)cc2C(c2ccccc2)C1O (single isomer, unassigned) [Example 1200]",
0.007 µM,CCCCC1(CCCC)CS(=O)(=O)c2ccc(N(C)C)cc2C(c2cccc(OCCOCCOCC[N+](CC)(CC)CCNC(=O)c3ccccc3)c2)C1O (stereo not shown) [Example 1374],
0.007 µM,CCCCC1(CCCC)CS(=O)(=O)c2ccc(N(C)C)cc2C(c2ccc(OCCOCC[n+]3ccc(N(C)C)cc3)c(F)c2)C1O (stereo not shown) [Example 1101],
0.12 µM,CCCCC1(CCCC)CS(=O)(=O)c2cc(N(C)C)ccc2C(c2ccccc2)C1O (stereo not shown) [Example 1169],
